Several values for one entry are separate records, joined by “and”; a condition that tells them apart may be missing. Equal entries are not always repeated.

What all share (format): cell-based, human
Experiment [1] deals with TGK. Briefly: TGK immunolabeling in situ in NHEK cultures (Example 3). The conditions noted are these: 72 hours; for TGK Fluorescence intensity/Number of cells: individual values (n=3); for TGK expression in the NHEK cultures (in words): activity higher than CaCl2 reference as by 10 μg/ml. Here is the method:
Normal human epidermal keratinocytes (NHEK); reference BIOalternatives K341, used at the third passage. Culture conditions: 37° C., 5% CO2 Culture medium: keratinocytesSFM complemented with an epidermal growth factor (EGF) 0.25 ng/ml, a pituitary extract (PE) 25 μg/ml and gentamycin […]. Experiment medium: keratinocytesSFM complemented with gentamycin 25 μg/ml. The keratinocytes have been sowed and cultured to confluence in 96-well plates and then, the medium has been replaced by an experiment medium containing, or not (control test), the tested extract or the reference (CaCl2 at 1.5 mM) and the cells have been incubated for 72 hours. All experimental conditions have been realized with n=3, for each marker. After incubation, the test medium has been withdrawn and the cells have been rinsed, fixed and permeabilized. The cells have been marked with the primary antibodies directed against the considered proteins (TGK). […] In parallel, the nucleuses of the cells have been stained by the Hoechst 33258 (bisbenzimide). The acquisition of the images has been carried out with a high-resolution imaging system, INCell AnalyzerTM 1000 (GE Healthcare). For each well, 5 captures of digitized images have been performed. The labelings have been quantified by measurement of the fluorescence intensity of the proteins divided by the number of nucleuses identified by the Hoechst (integration of the digital data by the software Developer Toolbow 1.5, GE Healthcare).

The subject of experiment [2] is TGK. Briefly: TGK immunolabeling in situ in NHEK cultures, loosestrife extracts (Example 5). The conditions noted are these: 72 hours, 1.5 mM. As for the experimental part:
Normal human epidermal keratinocytes (NHEK); reference BIOalternatives K341, used at the third passage.
Culture conditions: 37° C., 5% CO2
Culture medium: keratinocytesSFM complemented with an epidermal growth factor (EGF) 0.25 ng/ml, a pituitary extract (PE) 25 μg/ml and gentamycin 25 μg/ml.
Experiment medium: keratinocytesSFM complemented with gentamycin 25 μg/ml.
The keratinocytes have been sowed and cultured to confluence in 96-well plates and then, the medium has been replaced by an experiment medium containing, or not (control test), the tested extract or the reference (CaCl2 at 1.5 mM) and the cells have been incubated for 72 hours. All experimental conditions have been realized with n=3, for each marker.
After incubation, the test medium has been withdrawn and the cells have been rinsed, fixed and permeabilized. […] The acquisition of the images has been carried out with a high-resolution imaging system, INCell Analyzer™ ([…] (GE Healthcare). For each well, 5 captures of digitized images have been performed. The labelings have been quantified by measurement of the fluorescence intensity of the proteins divided by the number of nucleuses identified by the Hoechst (integration of the digital data by the software Developer Toolbow 1.5, GE Healthcare). […]
The TGK expression is given as the Fluorescence intensity/Number of cells (UA)

The subject of the next experiment is MMP-3. Briefly: ELISA of MMP-3 release by reconstructed skins in depleted medium. The conditions noted are these: reconstructed skins in depleted culture medium, 30 μg/ml and 60 μg/ml, D9. Here is the method:
(§1) Human skins reconstructed from a culture of keratinocytes sowed on a collagen lattice containing fibroblasts. Depleted culture medium: Epilife and supplements (without IGF-1 and without hydrocortisone)+CaCl2 1.5 mM+vitamin C (50 μg/ml). The reconstructed skins have been placed during the passage at the air-liquid interface (D0) in a 6-well plate in the depleted culture medium containing, or not (deficient control condition), the tested compounds. Afterwards, the reconstructed skins have been cultured for 9 days with the renewal of the culture medium containing, or not, the tested compounds every 2 to 3 days from D0 to D5, and then every day between D5 and D9. In parallel, a culture of the reconstructed skins in a complete medium has been realized, as a control test. The evaluation of the tested compound has been performed: • By histological analysis, by the histological observation of the epidermal thickness after HES (Hematoxylin-Eosin-Saffron) staining, • By RT-qPCR, by analysis of the expression of 16 markers (2 of which are reference genes) selected for their importance in cutaneous ageing, on the mRNAs extracted from the reconstructed skins for each treatment, and • By quantifying the release of MMP-1, MMP-3 and procollagen I in the suspensions of the cultures on D9, by ELISA assay, using ELISA assay kits used according to the instructions of the supplier.
For orientation: ELISA stands for enzyme-linked immunosorbent assay.

A further experiment has as its system MMP-1. Briefly: ELISA of MMP-1 release by reconstructed skins in depleted medium. The following applies: reconstructed skins in depleted culture medium, 30 μg/ml and 60 μg/ml, D9. As for the experimental part:
as §1

The subject of experiment [3] is reconstructed skins. The experiment in a line: Histological analysis (HES) of reconstructed skins in depleted medium. The conditions noted are these: 30 μg/ml and 60 μg/ml, 9 days. Here is the method:
Human skins reconstructed from a culture of keratinocytes sowed on a collagen lattice containing fibroblasts. The keratinocytes are cultured at 37° C., 5% CO2, at the air-liquid interface in one of the following media: Depleted culture medium: Epilife and supplements (without IGF-1 and without hydrocortisone)+CaCl2 1.5 mM+vitamin C (50 μg/ml). The following cultures have been realized: • Untreated reconstructed skins, • Skins reconstructed in a depleted medium, • Skins reconstructed in a depleted medium, each treated by a compound tested hereinabove, at a concentration of 30 μg/ml or 60 μg/ml. […] The evaluation of the tested compound has been performed: • By histological analysis, by the histological observation of the epidermal thickness after HES (Hematoxylin-Eosin-Saffron) staining, • By RT-qPCR, by analysis of the expression of 16 markers (2 of which are reference genes) selected for their importance in cutaneous ageing, on the mRNAs extracted from the reconstructed skins for each treatment, and • By quantifying the release of MMP-1, MMP-3 and procollagen I in the suspensions of the cultures on D9, by ELISA assay, using ELISA assay kits used according to the instructions of the supplier.

The subject of experiment [4] is reconstructed skins. Briefly: RT-qPCR of cutaneous ageing markers in reconstructed skins in depleted medium. The conditions noted are these: reconstructed skins in deficient medium, 30 μg/ml and 60 μg/ml, dose-dependent. Here is the method: as §1, with “fibroblasts. The keratinocytes are cultured at 37° C., 5% CO2, at the air-liquid interface in one of the following media:” for “fibroblasts.”, “μg/ml). The following cultures have been realized: • Untreated reconstructed skins, • Skins reconstructed in a depleted medium, • Skins reconstructed in a depleted medium, each treated by a compound tested hereinabove, at a concentration of 30 μg/ml or 60 μg/ml.” for “μg/ml).”, “test. All experimental conditions have been realized with n=4.” for “test.”
(In general: Quantitative PCR measures a nucleic acid by following its amplification.)

In the next experiment the test system is procollagen I. The experiment in a line: ELISA of procollagen I release by reconstructed skins in depleted medium. The conditions noted are these: reconstructed skins in depleted culture medium, 30 μg/ml and 60 μg/ml, D9. As for the experimental part:
as §1

Take `O=C1OC[C@H]2OC(=O)c3cc(O)c(O)c(O)c3-c3c(O)c(O)c(O)c4c3C(=O)O[C@H]([C@H]3OC(=O)c5c-4c(O)c(O)c(O)c5[C@H]3O)[C@@H]2OC(=O)c2cc(O)c(O)c(O)c2-c2c1cc(O)c(O)c2O` [Castalagin]: in the experiment with TGK [1] (0.0011 mg/ml), the “TGK % Control test” value turned out to be 202%; the “TGK % Stimulation” value is recorded as 162%; the “TGK Fluorescence intensity/Number of cells, Average” value was found to be 16135 UA; the “TGK Fluorescence intensity/Number of cells” value was 21020 UA and 15623 UA and 11760 UA. Moreover, in the experiment on TGK [1] (0.003 mg/ml), the “TGK % Control test” value is 436%; the “TGK % Stimulation” value is reported as 330%; the “TGK Fluorescence intensity/Number of cells, Average” value is listed as 26867 UA; the “TGK Fluorescence intensity/Number of cells” value is 30752 UA and 20672 UA and 23177 UA. Also, in the experiment on TGK [1] (0.01 mg/ml), the “TGK % Control test” value is 714%; the “TGK % Stimulation” value stood at 614%; the “TGK Fluorescence intensity/Number of cells, Average” value stood at 44055 UA; the “TGK Fluorescence intensity/Number of cells” value was 59547 UA and 22164 UA and 50453 UA. For the same compound, the “TGK expression in the NHEK cultures (in words)” value (shortened to “TGK expression … (in words)”) in the experiment on TGK [1] was “induce the TGK expression in the NHEK cultures in a dose-dependent fashion”.

For the compound `[Ca+2].[Cl-].[Cl-]` [CaCl2, reference compound], in the experiment on TGK [1] (1.5 mM), the “TGK % Control test” value stood at 473%; the “TGK % Stimulation” value was determined as 373%; the “TGK Fluorescence intensity/Number of cells, Average” value is given as 29160 UA; the “TGK Fluorescence intensity/Number of cells” value was 24066 UA and 30013 UA and 23527 UA. In addition, in the experiment with TGK [1] (1.5 mM, listed as Ca), the “TGK Fluorescence intensity/Number of cells” value is 22987 UA and 24146 UA and 32180 UA; the “TGK % Control test” value is 425%; the “TGK % Stimulation” value is given as 325%; the “TGK Fluorescence intensity/Number of cells, Average” value was 20404 UA. Further, in the experiment on TGK [2], the “TGK expression Average (Fluorescence intensity/Number of cells)” value is 69610 UA and the “TGK expression, Control test %” value amounted to 316%.

`O=C1OC[C@H]2OC(=O)c3cc(O)c(O)c(O)c3-c3c(O)c(O)c(O)c4c3C(=O)O[C@H]([C@H]3OC(=O)c5c-4c(O)c(O)c(O)c5[C@@H]3O)[C@@H]2OC(=O)c2cc(O)c(O)c(O)c2-c2c1cc(O)c(O)c2O` [Vescalagin]: the “release of MMP-3 (ELISA)” value in the experiment on MMP-3 is “major and significant decrease”. Besides, in the experiment with TGK [1] (0.0011 mg/ml), the “TGK % Control test” value was found to be 287%; the “TGK % Stimulation” value is 187%; the “TGK Fluorescence intensity/Number of cells, Average” value worked out at 17722 UA; the “TGK Fluorescence intensity/Number of cells” value is 22033 UA and 16688 UA and 14446 UA. In addition, in the experiment on TGK [1] (0.003 mg/ml), the “TGK % Control test” value was determined as 589%; the “TGK % Stimulation” value is recorded as 589%; the “TGK Fluorescence intensity/Number of cells, Average” value came out at 42460 UA; the “TGK Fluorescence intensity/Number of cells” value is 32859 UA and 40124 UA and 54396 UA. For the same compound, in the experiment on TGK [1] (0.01 mg/ml), the “TGK % Control test” value worked out at 702%; the “TGK % Stimulation” value is given as 602%; the “TGK Fluorescence intensity/Number of cells, Average” value came to 43284 UA; the “TGK Fluorescence intensity/Number of cells” value was 27714 UA and 45383 UA and 98755 UA. In addition, the “TGK expression … (in words)” value in the experiment with TGK [1] is on record as “induce the TGK expression in the NHEK cultures in a dose-dependent fashion”. Also, the “release of MMP-1 (ELISA)” value in the experiment with MMP-1 is “major and significant decrease”. Also, in the experiment with reconstructed skins [3], the “epidermis/dermis cohesion (HES)” value is “Partial recovery of the epidermis/dermis cohesion” and the “histology (HES)” value is given as “improvement of their histology”. Besides, in the experiment on reconstructed skins [4], the “expression of the inflammation markers (RT-qPCR)” value was “decrease of the expression of IL1B and PTGS2 to a lesser extent”; the “expression of the marker of the extracellular matrix COLIA1 (RT-qPCR)” value is “increase of the expression of the marker of the extracellular matrix COLIA1”; the “expression of the markers involved in the degradation of the extracellular matrix (RT-qPCR)” value was “decrease of the expression of the genes MMP1, MMP3 and TFPI2”; the “expression of the markers of the cells of the basal layer (RT-qPCR)” value was “increase of the marker of the cell cycle MKI67”. The “expression of the more tardive markers of the differentiation of the keratinocytes (RT-qPCR)” value in the experiment with reconstructed skins [4] is “decrease of the expression of TGM1 and CDSN”. Further, the “release of procollagen I (ELISA)” value in the experiment with procollagen I is recorded as “No modification”.

With `O=C(O)c1cc(O)c(O)c(O)c1` [Gallic acid, gallic acid], in the experiment with TGK [1] (0.0003 mg/ml), the “TGK % Control test” value amounted to 285%; the “TGK % Stimulation” value amounted to 165%; the “TGK Fluorescence intensity/Number of cells, Average” value is 16260 UA; the “TGK Fluorescence intensity/Number of cells” value was 18328 UA and 15263 UA and 15730 UA. For the same compound, in the experiment on TGK [1] (0.01 mg/ml), the “TGK % Control test” value came to 688%; the “TGK % Stimulation” value is reported as 588%; the “TGK Fluorescence intensity/Number of cells, Average” value worked out at 42738 UA; the “TGK Fluorescence intensity/Number of cells” value is 47924 UA and 36228 UA and 44065 UA. Also, in the experiment on TGK [1] (0.03 mg/ml), the “TGK % Control test” value is 1110%; the “TGK % Stimulation” value worked out at 1019%; the “TGK Fluorescence intensity/Number of cells, Average” value was 60518 UA; the “TGK Fluorescence intensity/Number of cells” value was 73870 UA and 53013 UA and 81670 UA. In addition, the “TGK expression … (in words)” value in the experiment on TGK [1] is recorded as “induce the TGK expression in the NHEK cultures in a dose-dependent fashion”.

Source of the values: patent US20170112737A1, “COSMETICS AND PHARMACEUTICAL APPLICATIONS OF GALLIC ACID AND GALLIC ACID DERIVATIVES” (GREENPHARMA, priority 2014, published 2017).
